Consider three molecules from publication PMC8409943, “Study on mechanism of low bioavailability of black tea theaflavins by using Caco-2 cell monolayer” (Drug Delivery, 2021).

The test system of one data set is MRP1. Kind of data set: Quantitative real-time PCR, mRNA level of MRP1. Type of data set: cell-based, Human. Particulars: Caco-2 cells, 200 μM, 2 h, vs control. As for the experimental part:
(§1) Cell culture and treatment were performed as described above in 2.6. Total RNA was extracted from Caco-2 cells by the cell RNA extraction kit, and then reverse-transcribed by the cDNA synthesis kit. Gene amplification and quantitative detection were performed as previously described (Ai et al., [2019]). Target mRNA levels were normalized to β-actin mRNA levels. Data were calculated by the 2^−ΔΔCT method.

In a further data set the test system is MRP3. Put plainly: Quantitative real-time PCR, mRNA level of MRP3. As to conditions: Caco-2 cells, 200 μM, 2 h, vs control. The class given is cell-based, Human. As for the experimental part:
as §1

Data set [1] relates to P-gp. Kind of data set: Quantitative real-time PCR, mRNA level of P-gp. Type of data set: cell-based, Human. Particulars: Caco-2 cells, 200 μM, 2 h, vs control. How it is done: as §1
For data set [2], the system named is P-gp. Put plainly: Western blot, protein level of P-gp. The class given is cell-based, Human. As to conditions: Caco-2 cells, 200 μM, 2 h, normalized to β-actin, vs control. As for the experimental part: Cell lysates were prepared with RIPA lysis buffer. […] Cell protein (50 μg) was loaded onto SDS polyacrylamide gel (5% stacking gel; 8% separating gel) and separated by electrophoresis for 1.5 h at 20 mA. Next, the separated proteins were transferred onto the PVDF membrane in ice bath for 1.5 h at 120 mA, followed by blocking the membrane with 5% nonfat milk in Tris-buffered saline containing 0.1% Tween-20 (TBST) for 1 h at room temperature. After blocking, the blots were incubated overnight at 4 °C with the primary antibody of P-gp, MRP1, MRP2, MRP3, BCRP (1:200) or β-actin (1:40,000), followed by washing with TBST and incubation for 1 h at room temperature with HRP-conjugated goat anti-rabbit (1:3,000). Immunoreactive proteins were visualized by the ECL detection system, band intensity was quantified by Image Lab (Bio-Rad, CA, USA), and the protein contents were normalized to β-actin.

The test system of a further data set is Caco-2 cells. Kind of data set: Intracellular accumulation of theaflavin monomers. Particulars: 200 μM theaflavins, 2 h incubation, 37 °C.
Another data set concerns BCRP. Put plainly: Quantitative real-time PCR, mRNA level of BCRP. Particulars: Caco-2 cells, 200 μM, 2 h, vs control. The class given is cell-based, Human. As for the experimental part:
as §1

For data set [3] the following is noted: 2 h, 200 μM.
Procedure: Standard stock solutions of each theaflavin were diluted with HBSS and DMEM respectively, obtaining final test solutions of 200 μM. The recovery rate of theaflavins in HBSS and in DMEM, in the absence of cells, was analyzed by HPLC after incubation at 37 °C for 0.5, 1, 2, 3, 4, 8, 12, and 24 hours, respectively. The recovery rate was used to measure the stability and calculated as follows: (2) Recovery rate=Ct/C0× 100% where Ct is the final concentration at different incubation time (μM); C0, the initial concentration (μM).
Theaflavins were characterized by high performance liquid chromatography (HPLC, Agilent 1100VL, Agilent Technologies Inc., CA, USA). Briefly, samples were extracted with 70% methanol, centrifuged at 685 × g for 10 min, and filtered through a 0.45 μm membrane (Nylon 66). The separation was performed by an ODS reversed-phase column (4.6 mm i.d.×250 mm, SB-C18, Agilent Technologies Inc., CA, USA) at a flow rate of 0.7 mL/min. Chromatographic conditions were slightly modified according to China National Standard (GB/T 30483-2013, GAQSIQ, P. R. China, 2013). Samples were eluted with a gradient of solvent A (100 mL water with 9 mL acetonitrile and 2 mL acetic acid) and B (100 mL acetonitrile with 17.8 mL water and 2 mL acetic acid) as follows: 0–5 min, 95% A; 5–10 min, 90% A; 10–20 min, 70% A; 20–25 min, 65% A; 25–30 min, 70% A; 30–35 min, 100% A. Theaflavins were detected using an ultraviolet detector at a wavelength of 278 nm.
On the set-up of data set [4]: method as in Henning et al., 2006. Particulars: mice treated with decaffeinated black tea (50 mg/g diet) for two weeks; ref Henning et al., 2006; cited from earlier work.

Each structure is given as a SMILES string.

Procedure for Caco-2 cells: Caco-2 cells were seeded at a density of 8 × 10^4 cells per well in 6-well plates (Ni et al., [2020]). After differentiation over a period of 21 days, cells were incubated with 2.0 mL of 200 μM theaflavins at 37 °C. After 2 h incubation, phosphate buffer was added to wash cells in the plate. Then, cell lysates were prepared with RIPA lysis buffer containing 1 mM PMSF as a protease inhibitor and centrifugated at 12,000 rpm for 30 min. Total protein contents were quantified using a BCA estimation kit according to the manufacturer’s instructions (Beyotime). Theaflavins were quantified by HPLC analysis and the intracellular accumulation was expressed as µg theaflavin/mg protein.
Theaflavins were characterized by high performance liquid chromatography (HPLC, Agilent 1100VL, Agilent Technologies Inc., CA, USA). Briefly, samples were extracted with 70% methanol, centrifuged at 685 × g for 10 min, and filtered through a 0.45 μm membrane (Nylon 66). […] Samples were eluted with a gradient of solvent A (100 mL water with 9 mL acetonitrile and 2 mL acetic acid) and B (100 mL acetonitrile with 17.8 mL water and 2 mL acetic acid) as follows: 0–5 min, 95% A; 5–10 min, 90% A; 10–20 min, 70% A; 20–25 min, 65% A; 25–30 min, 70% A; 30–35 min, 100% A. Theaflavins were detected using an ultraviolet detector at a wavelength of 278 nm.

With `O=C(O[C@@H]1Cc2c(O)cc(O)cc2O[C@@H]1c1cc(O)c(=O)c2c(O)c(O)cc([C@H]3Oc4cc(O)cc(O)c4C[C@H]3O)c2c1)c1cc(O)c(O)c(O)c1` [TF3G, theaflavin-3-gallate], the “increase of mRNA level of MRP1” value in the data set on MRP1 was determined as 154.97%. The “increase of mRNA level of MRP3” value in the data set with MRP3 was 34.01%. Further, the “increase of mRNA level of P-gp” value with P-gp [1] is 44.45%. The “increase of protein level of P-gp” value in the data set on P-gp [2] was found to be 23.94%.

As for `O=C(O[C@@H]1Cc2c(O)cc(O)cc2O[C@@H]1c1cc(O)c(O)c2c(=O)c(O)cc([C@H]3Oc4cc(O)cc(O)c4C[C@H]3O)cc12)c1cc(O)c(O)c(O)c1` [TF3’G, theaflavin-3’-gallate], the “Contents of theaflavins absorbed in Caco-2 cells” value with Caco-2 cells was “-”.

Take `O=C(O[C@@H]1Cc2c(O)cc(O)cc2O[C@@H]1c1cc(O)c(=O)c2c(O)c(O)cc([C@H]3Oc4cc(O)cc(O)c4C[C@H]3OC(=O)c3cc(O)c(O)c(O)c3)c2c1)c1cc(O)c(O)c(O)c1` [TFDG, theaflavin-3, 3’-digallate]: the “increase of mRNA level of BCRP” value with BCRP was 35.49%. Moreover, the “degraded due to the structural instability” value in data set [3] is on record as 11.6%. Further, in data set [4], the “amount in tissue samples” value is on record as “less than 1 nmol/g tissue”.
